Converted amounts (≈) assume the structure as drawn. Bounds are passed on as bounds.

In test [1] the test system is Klebsiella pneumoniae. Description: Antibacterial activity against Klebsiella pneumoniae K830 with arr-5 gene by Etest method. It is filed as functional.
Test [2] relates to Klebsiella pneumoniae. Nature of the test: Antibacterial activity against Klebsiella pneumoniae K688 with arr-5 gene by Etest method. It is filed as functional.
In test [3] the test system is Escherichia coli. Description: Antibacterial activity against Escherichia coli […] harboring arr-5 gene after 20 hrs by Etest method. The format is functional.
The subject of test [4] is Escherichia coli. Description: Antibacterial activity against Escherichia coli […] harboring arr-4 gene after 20 hrs by Etest method. The format is functional.
In test [5] the test system is Klebsiella pneumoniae. Nature of the test: Antibacterial activity against Klebsiella pneumoniae K224 with arr-5 gene by Etest method. It is filed as functional.
For test [6], the system named is Klebsiella pneumoniae. Nature of the test: Antibacterial activity against Klebsiella pneumoniae ATCC 10031 control strain by Etest method.
Test [7] relates to Pseudomonas aeruginosa. Nature of the test: Antibacterial activity against Pseudomonas aeruginosa PS1111 with arr-4 gene by Etest method. It is filed as functional.
Test [8] relates to Klebsiella pneumoniae. Description: Antibacterial activity against Klebsiella pneumoniae K56 with arr-5 gene by Etest method. It is filed as functional.

Regarding `CO[C@H]1/C=C/O[C@@]2(C)Oc3c(C)c(O)c4c(O)c(c(/C=N/N5CCN(C)CC5)c(O)c4c3C2=O)NC(=O)/C(C)=C\C=C\[C@H](C)[C@H](O)[C@@H](C)[C@@H](O)[C@@H](C)[C@H](OC(C)=O)[C@@H]1C` [RIFAMPIN], the minimum inhibitory concentration (MIC) (as a rule, the least concentration at which growth counts as inhibited) was over 32 µg/mL in test [1]; 8 µg/mL (≈ 9.72 µM) in test [2]; over 256 µg/mL in test [3]; over 256 µg/mL in test [4]; 8 µg/mL (≈ 9.72 µM) in test [5]; 6 µg/mL (≈ 7.29 µM) in test [6]. Also, the minimum inhibitory concentration (MIC) in test [7] is over 32 µg/mL; in test [8] it was 8 µg/mL (≈ 9.72 µM).

For the origin of these results see ChEMBL document CHEMBL1275412, “Detection of new arr-4 and arr-5 gene cassettes in clinical Pseudomonas aeruginosa and Klebsiella pneumoniae strains from Brazil” (2008).
